Experimental data reported in patent US7153869B2, “Substituted amino acids as erythropoietin mimetics” (priority 1998, dated 2006).

Molecular target: T1, EBP-Ig (N-terminal 225 amino acids of the human EPO receptor joined to an Ig heavy chain) (Homo sapiens, UniProt P19235)
T1 construct: Ig heavy chain (fusion partner); made in house; host or cells: NSO cells (secreted into conditioned media)
T1 sequence (P19235 25-250 limits assumed): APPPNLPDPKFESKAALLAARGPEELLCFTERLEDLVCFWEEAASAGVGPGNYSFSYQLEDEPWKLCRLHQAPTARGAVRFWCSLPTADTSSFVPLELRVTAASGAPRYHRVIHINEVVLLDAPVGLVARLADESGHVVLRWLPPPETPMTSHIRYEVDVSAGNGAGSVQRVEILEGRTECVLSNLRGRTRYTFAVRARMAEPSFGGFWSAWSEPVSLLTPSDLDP
Assay: Inhibition of [125I]EPO binding to immobilized EBP-Ig (EPO binding protein-Ig), scintillation Flash plate competition assay
Conditions: for EPO/EBP-Ig % inh @ 50 μM: 50 μM compound

COC(=O)[C@H](CCCCNC(=O)OC(C)(C)C)NC/C=C/c1cccc(Oc2ccccc2)c1 [compound 316]
EPO/EBP-Ig % inh @ 50 μM (Table 18A): 20%

COC(=O)[C@H](CCCCNC(=O)OC(C)(C)C)NC/C=C/c1cccc(Oc2ccc(C(C)(C)C)cc2)c1 [compound 317]
EPO/EBP-Ig % inh @ 50 μM (Table 18A): 13%

COC(=O)[C@H](CCCCNC(=O)OCc1ccccc1)NC/C=C/c1ccccc1 [compound 318]
EPO/EBP-Ig % inh @ 50 μM (Table 18A): 14%

COC(=O)[C@H](CCCCNC(=O)OCc1ccccc1)NC/C=C/c1ccc(OC)cc1 [compound 320]
EPO/EBP-Ig % inh @ 50 μM (Table 18A): 17%

CC(=O)O.COC(=O)c1cccc(C=CCNC(CCCCNC(=O)OCc2ccccc2)C(=O)OC)c1 (stereo not shown) [compound 321]
IC30 μM (Inhibition of EPO binding to EBP-Ig) (0.5 nM [125I]EPO, 0–500 μM test compound): 45 µM
EPO/EBP-Ig % inh @ 50 μM (Table 18A): 42%
% inh @ 50 μM (Inhibition of EPO binding to EBP-Ig) (50 μM test compound, 0.5 nM [125I]EPO, average % inhibition): 42%

COC(=O)[C@H](CCCCNC(=O)OCc1ccccc1)NC/C=C/c1ccc(C(=O)O)cc1 [compound 323]
EPO/EBP-Ig % inh @ 50 μM (Table 18A): 6%

COC(=O)[C@H](CCC(=O)O)NC/C=C/c1ccc(-c2ccccc2)cc1.O=C(O)C(F)(F)F [compound 327]
EPO/EBP-Ig % inh @ 50 μM (Table 19A): 11%

COC(=O)[C@H](CCC(=O)O)NC/C=C/c1cccc(Oc2ccc(Cl)c(Cl)c2)c1.O=C(O)C(F)(F)F [compound 328]
EPO/EBP-Ig % inh @ 50 μM (Table 19A): 33%

O=C(O)C(F)(F)F.O=C(O)CC[C@H](NC/C=C/c1ccc(-c2ccccc2)cc1)C(=O)O [compound 329]
EPO/EBP-Ig % inh @ 50 μM (Table 19A): 13%

O=C(O)C(F)(F)F.O=C(O)CC[C@H](NC/C=C/c1cccc(Oc2cccc(C(F)(F)F)c2)c1)C(=O)O [compound 330]
EPO/EBP-Ig % inh @ 50 μM (Table 19A): 12%

CC(C)(C)c1ccc(Oc2cccc(/C=C/CN[C@@H](CCC(=O)O)C(=O)O)c2)cc1.O=C(O)C(F)(F)F [compound 331]
EPO/EBP-Ig % inh @ 50 μM (Table 19A): 18%

O=C(O)C(F)(F)F.O=C(O)CC[C@H](NC/C=C/c1cccc(Oc2ccc(Cl)c(Cl)c2)c1)C(=O)O [compound 332]
EPO/EBP-Ig % inh @ 50 μM (Table 19A): 17%

COC(=O)[C@H](CCC(=O)OC(C)(C)C)NC/C=C/c1ccc2ccccc2c1 [compound 333]
EPO/EBP-Ig % inh @ 50 μM (Table 19A): 16%

COC(=O)[C@H](CCC(=O)OC(C)(C)C)NC/C=C/c1ccc(-c2ccccc2)cc1 [compound 335]
EPO/EBP-Ig % inh @ 50 μM (Table 19A): 25%

COC(=O)[C@H](CCC(=O)OC(C)(C)C)NC/C=C/c1cccc(Oc2ccc(Cl)c(Cl)c2)c1 [compound 336]
EPO/EBP-Ig % inh @ 50 μM (Table 19A): 32%

CC(C)(C)OC(=O)CC[C@H](NC/C=C/c1cccc(Oc2cccc(C(F)(F)F)c2)c1)C(=O)OC(C)(C)C [compound 338]
EPO/EBP-Ig % inh @ 50 μM (Table 19A): 23%

CC(C)(C)OC(=O)CC[C@H](NC/C=C/c1cccc(Oc2ccc(C(C)(C)C)cc2)c1)C(=O)OC(C)(C)C [compound 339]
EPO/EBP-Ig % inh @ 50 μM (Table 19A): 10%

CC(C)(C)OC(=O)CC[C@H](NC/C=C/c1ccc(-c2ccccc2)cc1)C(=O)O [compound 340]
EPO/EBP-Ig % inh @ 50 μM (Table 19A): 14%

CC(C)(C)OC(=O)CC[C@H](NC/C=C/c1cccc(Oc2ccc(Cl)c(Cl)c2)c1)C(=O)O [compound 341]
EPO/EBP-Ig % inh @ 50 μM (Table 19A): 19%

COC(=O)[C@H](CO)NC/C=C/c1ccc(-c2ccccc2)cc1.O=C(O)C(F)(F)F [compound 342]
EPO/EBP-Ig % inh @ 50 μM (Table 20A): 0%

COC(=O)[C@H](CO)NC/C=C/c1cccc(Oc2ccc(C(C)(C)C)cc2)c1.O=C(O)C(F)(F)F [compound 343]
EPO/EBP-Ig % inh @ 50 μM (Table 20A): 37%

COC(=O)[C@H](CO)NC/C=C/c1cccc(Oc2cccc(C(F)(F)F)c2)c1.O=C(O)C(F)(F)F [compound 344]
EPO/EBP-Ig % inh @ 50 μM (Table 20A): 4%

COC(=O)[C@H](CO)NC/C=C/c1cccc(Oc2ccc(Cl)c(Cl)c2)c1.O=C(O)C(F)(F)F [compound 345]
EPO/EBP-Ig % inh @ 50 μM (Table 20A): 40%

O=C(O)C(F)(F)F.O=C(O)[C@H](CO)NC/C=C/c1ccc(-c2ccccc2)cc1 [compound 348]
EPO/EBP-Ig % inh @ 50 μM (Table 20A): 21%

O=C(O)C(F)(F)F.O=C(O)[C@H](CO)NC/C=C/c1cccc(Oc2ccc(Cl)c(Cl)c2)c1 [compound 349]
EPO/EBP-Ig % inh @ 50 μM (Table 20A): 23%

O=C(O)C(F)(F)F.O=C(O)[C@H](CO)NC/C=C/c1cccc(Oc2cccc(C(F)(F)F)c2)c1 [compound 350]
EPO/EBP-Ig % inh @ 50 μM (Table 20A): 23%
